Results published in article PMC7287908, “N-Alkyl-2-[4-(trifluoromethyl)benzoyl]hydrazine-1-carboxamides and Their Analogues: Synthesis and Multitarget Biological Activity” (Molecules, 2020).
Values after ≈ are worked out from the molar mass of the structure shown. Where two headings read alike, the source gives them in different places.

Assays:
[1] = test system: Mycobacterium tuberculosis 331/88 (H37Rv); experiment: In vitro antimycobacterial activity (MIC); assay type: cell-based; conditions: read-out: MIC M. tuberculosis
[2] = target: T1, AChE from electric eel (EeAChE) (Electrophorus electricus, UniProt O42275); experiment: biochemical; conditions: for IC50: electric eel AChE, mean ± SD, n = three independent experiments; for Selectivity BuChE/AChE (selectivity index, SI): ratio of IC50 for BuChE/IC50 for AChE
T1 construct: Acetylcholinesterase used was obtained from electric eel (Electrophorus electricus L; EeAChE); purchased Sigma-Aldrich (Prague, Czech Republic); host or cells: electric eel (natural source)
T1 sequence (O42275 24-633): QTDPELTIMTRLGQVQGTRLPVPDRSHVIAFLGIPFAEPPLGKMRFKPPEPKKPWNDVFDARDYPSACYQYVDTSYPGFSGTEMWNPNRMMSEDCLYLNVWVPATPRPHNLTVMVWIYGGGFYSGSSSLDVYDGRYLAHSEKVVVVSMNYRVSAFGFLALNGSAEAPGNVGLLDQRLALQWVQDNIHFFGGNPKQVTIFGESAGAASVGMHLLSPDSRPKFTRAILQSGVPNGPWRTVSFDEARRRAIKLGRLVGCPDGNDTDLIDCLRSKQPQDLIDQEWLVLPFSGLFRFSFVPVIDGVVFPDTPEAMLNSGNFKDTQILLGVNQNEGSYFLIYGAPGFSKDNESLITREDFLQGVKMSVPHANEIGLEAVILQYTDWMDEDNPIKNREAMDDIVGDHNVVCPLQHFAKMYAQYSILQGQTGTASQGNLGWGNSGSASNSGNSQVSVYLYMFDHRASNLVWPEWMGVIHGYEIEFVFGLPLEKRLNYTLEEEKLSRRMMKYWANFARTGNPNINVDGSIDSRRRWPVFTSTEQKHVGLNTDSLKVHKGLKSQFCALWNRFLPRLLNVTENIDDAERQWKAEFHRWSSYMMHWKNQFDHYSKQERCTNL
Protocol: (§1) Newly synthesized N-alkyl-2-[4-(trifluoromethyl)benzoyl]hydrazine-1-carboxamides 2a–2q were evaluated for their in vitro potency to inhibit AChE from electric eel (EeAChE) and BuChE from equine serum (EqBuChE) using modified Ellman’s spectrophotometric method. […] The efficacy of inhibitors is expressed as IC50, i.e., the concentration causing 50% inhibition of the enzyme activity. Based on IC50 values for both enzymes, selectivity indexes (SI) as the ratio of IC50 for BuChE/IC50 for AChE to quantify the preference for AChE were calculated (Table 1).
(§2) IC50 values were determined using the spectrophotometric Ellman’s method modified according to Zdražilová et al., which is a simple, rapid and direct method to determine the SH and -S-S- group content. This method is widely used for the screening of the efficiency of cholinesterases inhibitors. The enzymatic activity is measured indirectly by quantifying the concentration of the 5-thio-2-nitrobenzoic acid ion formed in the reaction between the thiol reagent 5,5′-dithio-bis(2-nitrobenzoic acid) and thiocholine, a product of acetylthiocholine substrate hydrolysis by cholinesterases.
(§3) The enzyme activity in final reaction mixture (2000 µL) was 0.2 U/mL, concentration of acetylthiocholine (or butyrylthiocholine) 40 µM and concentration of 5,5′-dithio-bis(2-nitrobenzoic acid) 0.1 mM for all reactions. The tested compounds were dissolved in DMSO and then diluted in demineralized water to the concentration of 1 mM. […] All measurements were carried in triplicates and the average values of reaction rate (v0-uninhibited reaction, vi-inhibited reaction) were used for construction of the dependence v0/vi vs. concentration of inhibitor. From obtained equation of regression curve, IC50 values were calculated.
(§4) Acetylcholinesterase used was obtained from electric eel (Electrophorus electricus L.; EeAChE) and butyrylcholinesterase from equine serum (EqBuChE).

[3] = target: T2, BuChE from equine serum (EqBuChE) (Equus caballus, UniProt P81908); experiment: biochemical; conditions: mean ± SD, n = three independent experiments
T2 construct: butyrylcholinesterase from equine serum (EqBuChE); purchased Sigma-Aldrich (Prague, Czech Republic); host or cells: equine serum (natural source)
T2 sequence (P81908 whole entry): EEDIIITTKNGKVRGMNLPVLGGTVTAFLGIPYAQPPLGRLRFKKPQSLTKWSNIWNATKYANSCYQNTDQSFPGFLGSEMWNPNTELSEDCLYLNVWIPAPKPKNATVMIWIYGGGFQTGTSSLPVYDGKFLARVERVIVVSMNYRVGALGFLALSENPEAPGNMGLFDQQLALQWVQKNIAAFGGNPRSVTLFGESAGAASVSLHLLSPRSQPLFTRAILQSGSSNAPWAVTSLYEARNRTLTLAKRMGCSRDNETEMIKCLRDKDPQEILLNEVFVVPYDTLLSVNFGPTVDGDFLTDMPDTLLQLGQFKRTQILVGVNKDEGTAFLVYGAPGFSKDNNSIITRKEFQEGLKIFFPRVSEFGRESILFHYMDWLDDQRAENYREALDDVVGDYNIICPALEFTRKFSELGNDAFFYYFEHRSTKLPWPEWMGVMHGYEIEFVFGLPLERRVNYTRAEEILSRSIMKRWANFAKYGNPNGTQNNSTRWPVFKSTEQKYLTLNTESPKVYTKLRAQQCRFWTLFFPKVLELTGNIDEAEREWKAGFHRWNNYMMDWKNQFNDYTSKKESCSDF
Protocol: as §1, §2, §3, §4

[4] = test system: M. kansasii 235/80 and M. kansasii 6509/96; experiment: In vitro antimycobacterial activity (MIC); assay type: cell-based; conditions: Mycobacterium kansasii, read-out: MIC M. kansasii
[5] = test system: MonoMac6 cells; experiment: Cytostatic activity, MTT assay; assay type: cell-based, human; conditions: MonoMac6, at a concentration of 100 µM
Protocol: (§5) Since compounds containing trifluoromethyl group has been known for their toxic action on eukaryotic cells and approved as anticancer drugs, we investigated cytostatic properties of the derivatives 2–4 using human hepatocellular carcinoma (HepG2) and monocyte (MonoMac6) cell lines. […] The remaining compounds have no cytostatic effect up to 50 µM. Higher concentrations were not investigated due to solubility problems, i.e., precipitation of crystals. […]
(§6) The cell viability was determined by 3-(4,5-dimethylthiazol-2-yl)-2,5-diphenyltetrazolium bromide (MTT) assay. […] The obtained formazan crystals were dissolved in 100 μL of DMSO and the optical density (OD) of the samples was measured at λ = 540 and 620 nm, respectively, employing an ELISA reader (iEMS Reader, Labsystems, Helsinki, Finland). OD620 values were subtracted from OD540 values and the percent of cytostasis was calculated using the following equation:Cytostatic effect (%) = [1 − (ODtreated/ODcontrol)] × 100 where ODtreated and ODcontrol correspond to the optical densities of the treated and the control cells, respectively). […]

[6] = test system: HepG2 cells; experiment: Cytostatic activity, MTT assay; assay type: cell-based, human; conditions: HepG2, at a concentration of 100 µM
Protocol: as §5, §6

[7] = test system: M. tuberculosis 331/88, M. avium 330/88, M. kansasii 235/80, M. kansasii 6509/96; experiment: In vitro antimycobacterial activity (MIC), whole panel, strain not specified; assay type: cell-based; conditions: panel of four mycobacterial strains; read-out: MIC (mycobacteria, strain not specified)

SMILES | Selectivity BuChE/AChE (selectivity index, SI) [2] | IC50 ([2]; read-out: IC50 AChE) | IC50 ([3]; read-out: IC50 BuChE) | other results
CNC(=O)NNC(=O)c1ccc(C(F)(F)F)cc1 [2a, N-Methyl-2-[4-(trifluoromethyl)benzoyl]hydrazine-1-carboxamide] | 2.7 |  |  | MIC ([1]; H37RV): 1000 µM (≈ 261 µg/mL); IC50 ([2]; IC50 AChE): 31.2 ± 1.87 µM; IC50 ([3]; IC50 BuChE): 84.2 ± 2.1 µM; MIC [4]: 1000 µM (≈ 261 µg/mL)
CCNC(=O)NNC(=O)c1ccc(C(F)(F)F)cc1 [2b, N-Ethyl-2-[4-(trifluoromethyl)benzoyl]hydrazine-1-carboxamide] | 1.8 | 56.32 ± 0.54 µM | 103 ± 2.75 µM | MIC ([1]; H37RV): 1000 µM (≈ 275 µg/mL); MIC [4]: 1000 µM (≈ 275 µg/mL)
CCCNC(=O)NNC(=O)c1ccc(C(F)(F)F)cc1 [2c, N-Propyl-2-[4-(trifluoromethyl)benzoyl]hydrazine-1-carboxamide] |  | 82.3 ± 3.31 µM | 112.7 ± 0.98 µM | 
CCCCNC(=O)NNC(=O)c1ccc(C(F)(F)F)cc1 [2d, N-Butyl-2-[4-(trifluoromethyl)benzoyl]hydrazine-1-carboxamide] | 2.3 | 38.6 ± 1.32 µM | 87.8 ± 7.96 µM | 
CCCCCNC(=O)NNC(=O)c1ccc(C(F)(F)F)cc1 [2e, N-Pentyl-2-[4-(trifluoromethyl)benzoyl]hydrazine-1-carboxamide] | 1.3 | 43.59 ± 0.41 µM | 58 µM | 
CCCCCCNC(=O)NNC(=O)c1ccc(C(F)(F)F)cc1 [2f, N-Hexyl-2-[4-(trifluoromethyl)benzoyl]hydrazine-1-carboxamide] | 1.5 | 49.2 ± 2.36 µM | 72.5 ± 1.51 µM | MIC ([1]; H37RV): 250 µM (≈ 82.8 µg/mL); MIC [4]: 250 µM (≈ 82.8 µg/mL)
CCCCCCCNC(=O)NNC(=O)c1ccc(C(F)(F)F)cc1 [2g, N-Heptyl-2-[4-(trifluoromethyl)benzoyl]hydrazine-1-carboxamide] | 1.3 | 59.2 ± 2.38 µM | 79.3 ± 1.53 µM | 
CCCCCCCCNC(=O)NNC(=O)c1ccc(C(F)(F)F)cc1 [2h, N-Octyl-2-[4-(trifluoromethyl)benzoyl]hydrazine-1-carboxamide] | 1.3 | 77 ± 4.75 µM | 101.3 ± 0.99 µM | 
CCCCCCCCCNC(=O)NNC(=O)c1ccc(C(F)(F)F)cc1 [2i, N-Nonyl-2-[4-(trifluoromethyl)benzoyl]hydrazine-1-carboxamide] | 0.8 | 107 µM | 82.2 ± 3.42 µM | 
CCCCCCCCCCNC(=O)NNC(=O)c1ccc(C(F)(F)F)cc1 [2j, N-Decyl-2-[4-(trifluoromethyl)benzoyl]hydrazine-1-carboxamide] | 3.9 | 49.5 ± 1.74 µM | 192 ± 6.83 µM | 
CCCCCCCCCCCNC(=O)NNC(=O)c1ccc(C(F)(F)F)cc1 [2k, 2-[4-(Trifluoromethyl)benzoyl]-N-undecylhydrazine-1-carboxamide] | 4.4 | 40.71 ± 0.37 µM | 179 ± 2.96 µM | 
CCCCCCCCCCCCNC(=O)NNC(=O)c1ccc(C(F)(F)F)cc1 [2l, N-Dodecyl-2-[4-(trifluoromethyl)benzoyl]hydrazine-1-carboxamide] | 5.8 | 45.2 ± 0.69 µM | 264.14 ± 0.22 µM | 
CCCCCCCCCCCCCNC(=O)NNC(=O)c1ccc(C(F)(F)F)cc1 [2m, N-Tridecyl-2-[4-(trifluoromethyl)benzoyl]hydrazine-1-carboxamide] | 9.6 |  | 277 ± 10.3 µM | IC50 ([2]; IC50 AChE): 28.9 ± 0.67 µM; IC50 ([3]; IC50 BuChE): 278 µM
CCCCCCCCCCCCCCNC(=O)NNC(=O)c1ccc(C(F)(F)F)cc1 [2n, N-Tetradecyl-2-[4-(trifluoromethyl)benzoyl]hydrazine-1-carboxamide] | 6.8 | 38.7 ± 1.14 µM | 262 ± 17.2 µM | 
CCCCCCCCCCCCCCCNC(=O)NNC(=O)c1ccc(C(F)(F)F)cc1 [2o, N-Pentadecyl-2-[4-(trifluoromethyl)benzoyl]hydrazine-1-carboxamide] | 8.6 | 27 µM | 233 ± 15.7 µM | 
CCCCCCCCCCCCCCCCNC(=O)NNC(=O)c1ccc(C(F)(F)F)cc1 [2p, N-Hexadecyl-2-[4-(trifluoromethyl)benzoyl]hydrazine-1-carboxamide] | 2.7 | 68.63 ± 0.56 µM | 187 ± 13.2 µM | 
CCCCCCCCCCCCCCCCCCNC(=O)NNC(=O)c1ccc(C(F)(F)F)cc1 [2q, N-Octadecyl-2-[4-(trifluoromethyl)benzoyl]hydrazine-1-carboxamide] | 2.0 | 72.3 ± 2.01 µM | 146 ± 2.6 µM | 
CCCCCC(=O)NNC(=O)c1ccc(C(F)(F)F)cc1 [3a, N′-Hexanoyl-4-(trifluoromethyl)benzohydrazide] | 1.6 | 67.1 ± 3.05 µM | 110 ± 0.2 µM | MIC ([1]; H37RV): 125 µM (≈ 37.8 µg/mL); MIC [4]: > 250 µM
CCCCCCCCCCCCCCCC(=O)NNC(=O)c1ccc(C(F)(F)F)cc1 [3b, N′-Palmitoyl-4-(trifluoromethyl)benzohydrazide] | 1.6 | 91.9 ± 6.79 µM | 148.6 ± 0.36 µM | 
NNC(=O)c1ccc(C(F)(F)F)cc1 [compound 1, 4-(Trifluoromethyl)benzohydrazide] |  |  |  | IC50 ([3]; IC50 BuChE): 204 ± 2.69 µM; cytostatic action [5]: avoided any cytostatic action; cytostatic action [6]: avoided any cytostatic action
CCCCCCNc1nnc(-c2ccc(C(F)(F)F)cc2)o1 [compound 4, N-Hexyl-5-[4-(trifluoromethyl)phenyl]-1,3,4-oxadiazol-2-amine] | 1.7 | 71.32 ± 0.63 µM | 118 ± 1.46 µM | MIC ([1]; H37RV): 125 to 250 µM (≈ 39.2 to 78.3 µg/mL); MIC [7]: ≥ 62.5 µM; MIC [4]: 62.5 to 250 µM (≈ 19.6 to 78.3 µg/mL)
NNC(=O)c1ccncc1 [isoniazid, isonicotinoylhydrazide, reference compound] |  |  |  | MIC ([1]; M. tuberculosis 331/88 (H37Rv)): 1 µM (≈ 0.137 µg/mL)
